Among the data in patent US5059692A, “Novel compounds exhibiting a vasodilating activity and inhibitory activity for platelet aggregation” (priority 1989, dated 1991) are IC50 and EC50 values, retold here.

The subject of experiment [1] is washed platelets. In words: Inhibition of Platelets Aggregation (P.A.IC50), collagen-induced, washed platelets, turbidmetric method. The following applies: Platelet, human washed platelets, 37° C., 2 min preincubation. It counts as cell-based. The protocol: Inhibition of Platelets Aggregation (P.A.IC50)
Preparation of washed platelets (centrifugation method) Blood drawn from healthy human volunteers was anticoagulated with 1/10 volume of 0.38% sodium citrate. Platelets-rich plasma (PRP) was obtained by centrifugation of whole blood at 700× G for 10 minutes. The resulting PRP was then centrifuged at 1500× G for 10 minutes in the presence of 1/6 volume of ACD solution (2.2% of sodium citrate, 0.8% of citric acid and 2.2% of glucose), and the pellet was suspended with the modified HEPES-Tyrode solution (135 mM NaCl, 2.7 mM KCl, 1 mM MgCl2, 0.1% glucose, and 20 mM HEPES; pH 7.4).
After the platelet suspension was centrifuged again at 1500× G for 5 minutes with 1/6 volume of the ACD solution, the pellet was resuspended with the modified HEPES-Tyrode solution. Then the washed platelet suspension (=300,000 platelets/μl) was obtained.
Measurement of Platelet Aggregation (Turbidmetric Method)
Platelet aggregation was studied by the turbidmetric method with an 4 ch. aggregometer (HEMA tracer 601; Nikoh Bioscience Co., Japan). Test sample (3 μl, appropriate concentration) or vehicle (3 μl) was added to 270 μl of the platelet suspension and incubated at 37° C. with stirring for 2 minutes before the addition of 30 μl collagen ([…]).
Estimation of Inhibitory Action
The extent of aggregation was expressed by the maximum change of light transmission expressed as a percentage, taking the difference between light transmission for the platelet suspension and platelet-poor-plasma as a value of 100%. Percent inhibition of aggregation by a test compound was calculated by dividing the percent aggregation by that observed in the control run, then multiplying by 100. IC50 values were expressed as the concentrations of test compounds which produced 50% inhibition of the platelet aggregation.

Experiment [2] has as its system rabbit mesenteric artery. In words: Vasorelaxant Effect (V.R., ED50), KCl-precontracted mesenteric artery strips. The following applies: Oryctolagus cuniculus; rabbit superior mesenteric artery helical strips, precontracted with 20 mM KCl, 37°±0.5° C., cumulative addition. The protocol: Vasorelaxant Effect (V.R., ED50)
Male albino rabbits were killed by exanguination.
The vascular strips were vertically suspended in an organ bath filled with a Krebs-Henseleit solution the temperature of which was maintained at 37°±0.5° C. A mixture of 95% O2 -5% CO2 was constantly bubbled through the bicarbonate-based solution in the organ bath. Mechanical responses of the rabbit mesenteric artery evoked by a high concentration of KCl were measured isometrically using the force-displacement transducer.
After obtaining a reproducible response to KCl, the preparations were precontracted with 20 mM KCl and then relaxed by the cumulative addition of the compounds. The ED50 value was read from a plot of the percentage of the relaxing response (maximum contractile response to KCl was taken as 100%) vs. the log concentration of the compounds.

Usually IC50 stands for the midpoint of a concentration-inhibition curve. A low value points to greater potency in that assay. In general, EC50 refers to the concentration needed to bring the measured effect to its halfway point. The low end stands for higher potency in that assay, the high end for lower potency in that assay. As for `COC(=O)c1sc2c(c1N)c1ccccc1c(=O)n2-c1ccccc1` [compound 1, Methyl 1-amino-4,5-dihydro-5-oxo-4-phenyl-thieno[2,3-c]isoquinoline-2-carboxylate], 0.023 µM corresponded to half-maximal inhibition in experiment [1] (IC50). In experiment [2], this molecule had an EC50 of 20 µM. On the same counts, the results for `COC(=O)c1sc2c(c1N)c1ccccc1c(=O)n2-c1ccccc1C` [compound 2, Methyl 1-amino-4,5-dihydro-4-(2-methylphenyl)-5-oxo-thieno[2,3-c]isoquinoline-2-carboxylate] are 0.56 µM and 4.6 µM. `COC(=O)c1sc2c(c1N)c1ccsc1c(=O)n2-c1ccccc1` [compound 3, Methyl 1-amino-4,5-dihydro-5-oxo-4-phenyl-dithieno[2,3-b:3',2'-d]pyridine-2-carboxylate] registered a half-maximal inhibitory concentration (IC50) in experiment [1] of 0.26 µM. For the molecule `COC(=O)c1sc2c(c1N)c1ccccc1c(=O)n2-c1ccccc1Cl` [compound 4, Methyl 1-amino-4-(2-chlorophenyl)-4,5-dihydro-5-oxo-thieno[2,3-c]isoquinoline-2-carboxylate], half-maximal inhibition in experiment [1] (IC50) required 0.1 µM. The EC50 in experiment [2] is 5.7 µM. On the same counts, the results for `COC(=O)c1sc2c(c1N=CN(C)C)c1ccccc1c(=O)n2-c1ccccc1` [compound 7, Methyl 1-dimethylaminomethyleneamino-4,5-dihydro-5-oxo-4-phenyl-thieno[2,3-c]isoquinoline-2-carboxylate] are 100 µM and 74 µM. In experiment [2], `COC(=O)c1sc2c(c1N=CN(C)C)c1ccccc1c(=O)n2-c1ccccc1C` [compound 8, Methyl 1-dimethylaminomethyleneamino-4,5-dihydro-4-(2-methylphenyl)-5-oxo-thieno[2,3-c]isoquinoline-2-carboxylate] displayed an EC50 of 1.6 µM. Regarding `COC(=O)c1sc2c(c1N=C1CCCN1C)c1ccccc1c(=O)n2-c1ccccc1C` [compound 9, Methyl 4,5-dihydro-4-(2-methylphenyl)-1-(1-methyl-2-pyrrolidinylideneamino)-5-oxo-thieno[2,3-c]isoquinoline-2-carboxylate], 100 µM corresponded to half-maximal inhibition in experiment [1] (IC50). This molecule yielded an EC50 in experiment [2] of 1.1 µM.

Molecule `COC(=O)c1sc2c(c1N)-c1ccccc1CN2c1ccccc1` [compound 10, Methyl 1-amino-4,5-dihydro-4-phenyl-thieno[2,3-c]isoquinoline-2-carboxylate] showed an IC50 in experiment [1] of 0.31 µM. In experiment [2], the EC50 was determined as 8 µM.
